Source: US9394228B2, “Methods of treatment using lipid compounds” (PRONOVA BIOPHARMA NORGE AS, priority 2010, dated 2016)

What was measured:
[1] = target: T1, PPAR[…] (positive control GW7647, i.e. PPARα) (Homo sapiens, UniProt Q07869); assay: PPAR activation in vitro, mammalian-one-hybrid (M1H) GAL4-PPAR-LBD luciferase reporter assay; type: cell-based; conditions: efficacy of positive control GW7647 set to 100%; HEK293 cells; first PPAR[…] column
T1 construct: expressed in transfected cells; host or cells: HEK293
Protocol: (§1) Compounds (A)-(C) and a positive control were tested at six different concentrations in duplicate:
(§2) The positive controls were GW7647 (PPAR[…]), GW501516 (PPAR[…]) and rosiglitazone (PPAR[…]). The efficacy of the controls were set to 100%.
(§3) Assays were carried out in vitro using mammalian-one-hybrid assays (M1H) comprising GAL4-DNA binding domain-PPAR-LBD fusion constructs in conjunction with 5×GAL4-sites driven Photinus pyralis luciferase reporter constructs in transiently transfected HEK293 cells. The cells were transfected 4-6 hours and grown overnight before compounds were added. Compound incubation was 16-20 hours. Renilla reniformis luciferase, driven by a constitutive promoter, was included as internal control to improve experimental accuracy.

[2] = target: T2, PPAR[…] (positive control GW501516, i.e. PPARδ) (Homo sapiens, UniProt Q03181); assay: as above; type: cell-based; conditions: second PPAR[…] column; for Efficacy: efficacy of positive control GW501516 set to 100%, HEK293 cells; for EC50: transiently transfected HEK293 cells, compound incubation 16-20 hours
T2 construct: expressed in transfected cells; host or cells: HEK293
Protocol: as §1, §2, §3

[3] = target: T3, PPAR[…] (positive control rosiglitazone, i.e. PPARγ) (Homo sapiens, UniProt P37231); assay: as above; type: cell-based; conditions: efficacy of positive control rosiglitazone set to 100%; HEK293 cells; third PPAR[…] column
T3 construct: expressed in transfected cells; host or cells: HEK293
Protocol: as §1, §2, §3

[4] = system: APOE*3Leiden.CETP transgenic mice; assay: Effects on in vivo atherosclerosis development in a mouse model
Excerpt: The APOE*3Leiden.CETP transgenic mouse has proven to be representative of the human situation with respect to plasma lipoprotein levels and its responsiveness to hypolipidemic drugs (like statins, fibrates etc.) and nutritional intervention. APOE*3Leiden.CETP mice develop atherosclerotic lesions in the aorta resembling those found in humans with respect to cellular composition and morphological and immunohistochemical characteristics.
Female APOE*3Leiden.CETP mice were put on a Western-type diet (WTD) with 0.15% cholesterol and 15% saturated fat; resulting in plasma cholesterol levels of about 13-15 mM. After a 3 week run-in period on the WTD, the mice were sub-divided into 4 groups of 15 mice, control (no treatment), Compound A of Example 2 above, fenofibrate and a low-cholesterol diet. The groups were matched for body weight, plasma total cholesterol (TC), HDL cholesterol (HDL-C) and triglycerides (TG) after 4 h fasting (t=0).
The test substances were administered orally as admix to the Western-type diet. To facilitate the mixing of the compounds sunflower oil was added to a total oil volume of 10 mL/kg diet. Compound (A) was tested at initially at 0.1 mmol/kg bw/day and reduced to 0.04 mmol/kg bw/day at 4 weeks; the initial dose was based on a prior dose-finding study to establish the required dosage that would reduce VLDL/LDL cholesterol by 25-30%. The fenofibrate dose was initially 10 mg/kg bw/day, and later reduced to 4.2 mg/kg bw/day to parallel reductions in VLDL/LDL cholesterol induced by Compound A.
At t=0 and t=17 weeks, blood samples were taken after a 4 hour-fast period to measure plasma cholesterol and triglycerides. Atherosclerosis development in aortic root (total lesion area) was measured at sacrifice.
The results for total cholesterol (mM), HDL cholesterol (mM), lesion area (μm^2*1000) and undiseased segments (%) are shown in FIGS. 4, 5, 6, and 7, respectively.

T3 sequence (P37231 238-503 limits assumed): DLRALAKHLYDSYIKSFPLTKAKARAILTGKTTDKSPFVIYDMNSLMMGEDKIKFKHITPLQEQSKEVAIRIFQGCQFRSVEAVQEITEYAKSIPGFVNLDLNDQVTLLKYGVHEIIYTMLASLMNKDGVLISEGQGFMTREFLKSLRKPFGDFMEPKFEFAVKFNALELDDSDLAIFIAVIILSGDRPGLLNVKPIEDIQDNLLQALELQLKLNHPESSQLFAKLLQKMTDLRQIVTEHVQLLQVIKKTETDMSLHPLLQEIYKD
T3 sequence (P04386 1-147 partner limits assumed): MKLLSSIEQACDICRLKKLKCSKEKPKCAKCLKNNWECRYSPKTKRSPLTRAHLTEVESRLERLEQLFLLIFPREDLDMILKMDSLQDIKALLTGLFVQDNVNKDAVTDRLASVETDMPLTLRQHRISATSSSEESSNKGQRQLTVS
T2 sequence (Q03181 211-439 limits assumed): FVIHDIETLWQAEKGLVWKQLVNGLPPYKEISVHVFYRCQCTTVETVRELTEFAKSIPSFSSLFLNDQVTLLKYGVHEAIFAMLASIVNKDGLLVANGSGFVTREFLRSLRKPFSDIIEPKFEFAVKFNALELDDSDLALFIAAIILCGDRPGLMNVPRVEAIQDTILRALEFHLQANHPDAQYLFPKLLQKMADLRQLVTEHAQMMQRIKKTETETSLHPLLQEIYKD
T2 sequence (P04386 1-147 partner limits assumed): as the sequence (P04386 1-147 partner limits assumed) above
T1 sequence (Q07869 239-466 limits assumed, species assumed): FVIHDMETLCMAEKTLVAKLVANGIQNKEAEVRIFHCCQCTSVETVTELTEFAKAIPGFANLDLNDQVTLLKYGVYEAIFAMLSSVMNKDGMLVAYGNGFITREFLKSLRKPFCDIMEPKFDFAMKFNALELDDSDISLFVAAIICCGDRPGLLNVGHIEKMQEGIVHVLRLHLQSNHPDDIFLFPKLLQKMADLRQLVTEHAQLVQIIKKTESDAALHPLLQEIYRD
T1 sequence (P04386 1-147 partner limits assumed, species assumed): as the sequence (P04386 1-147 partner limits assumed) above

Structure (SMILES) | Efficacy [1] [%] | Efficacy [2] | EC50 [2] | Efficacy [3] [%] | development of atherosclerosis ([4]; APOE*3Leiden.CETP transgenic mice, overall conclusion) | lesion area ([4]; aortic root, at sacrifice, as compared to control, p<0.003) | total cholesterol ([4]; as compared to control, p<0.001, oral admix to Western-type diet, 0.1 then 0.04 mmol/kg bw/day, t=17 weeks) | HDL cholesterol ([4]; as compared to control, p<0.003, oral admix to Western-type diet, 0.1 then 0.04 mmol/kg bw/day, t=17 weeks)
CC/C=C\C/C=C\C/C=C\C/C=C\C/C=C\CCCCOC(CC)C(=O)O (stereo not shown) [Compound A, 2-((5Z,8Z,11Z,14Z,17Z)-icosa-5,8,11,14,17-pentaenyloxy)butanoic acid] | 82 | inactive | inactive | 22 | inhibits | significantly decreased | significantly decreased | significantly increased
CC/C=C\C/C=C\C/C=C\C/C=C\C/C=C\CCCCO[C@@H](CC)C(=O)O [Compound B, (S)-2-((5Z,8Z,11Z,14Z,17Z)-icosa-5,8,11,14,17-pentaenyloxy)butanoic acid] | 86 | inactive | inactive | 27 |  |  |  | 
CC/C=C\C/C=C\C/C=C\C/C=C\C/C=C\CCCCO[C@H](CC)C(=O)O [Compound C, (R)-2-((5Z,8Z,11Z,14Z,17Z)-icosa-5,8,11,14,17-pentaenyloxy)butanoic acid] | 54 | inactive | inactive | 25 |  |  |  | 
